Reference: patent publication US10130590B2, “Methods of treating cancer with atovaquone-related compounds” (DANA-FARBER CANCER INSTITUTE, INC., priority 2013, dated 2018)

How the values were obtained:
gp130 = assay: Flow cytometry of cell-surface gp130; assay type: cell-based
Method: Annexin V/PI staining was performed using Annexin V:FITC Apoptosis Detection Kit I (BD Biosciences). Staining for cell cycle analysis was performed as previously described (267). Staining for cell-surface receptors was performed in 50 μl PBS+2% FBS with 2 μl antibody to IL6R (BioLegend #352803) or 5 μl antibody to gp130 (BD Biosciences #555757) for 20 minutes on ice in the dark. Cells were washed twice, then resuspended in 300 μl of the same buffer. Samples were analyzed on a BD FACSCanto II machine. Transfection and siRNA Cells were reverse-transfected using Lipofectamine RNAiMAX (Invitrogen); the culture medium was changed 24 hours later. Control siRNA (D-001210-02) and REDD1 siRNA (M-010855-01) were from Thermo Scientific Dharmacon.
Since atovaquone reduced gp130 expression at the cell surface, it was asked whether this effect was accompanied by reduced total gp130 in the cell. To address this question, a time course of atovaquone treatment was performed and total cellular gp130 was measured by Western blotting in U266 cells treated with atovaquone at 20 μM. […] Thus, it was surmised that atovaquone also rapidly downregulates cell-surface gp130, paralleling STAT3 inhibition and preceding the decrease in total gp130. […] Loss of cell-surface gp130 may be due to decreased entry into the plasma membrane or increased internalization. In either case, the decrease in total gp130 observed at longer time points is likely due to degradation of relatively unstable intracellular gp130.

INA-6 cells = assay: Cell viability (Cell Titer Glo), INA-6; assay type: cell-based; conditions: 72 hours
Method: Western blotting was performed as previously described (Battle T E, Arbiser J, & Frank D A (2005) The natural product honokiol induces caspase dependent apoptosis in B-cell chronic lymphocytic leukemia (B-CLL) cells. Blood 106(2):690-697). Antibodies to phospho-MAPK (9101), total MAPK (9102), phospho-Y705 STAT3 (9131), phospho-S6 (2215), total S6 (2217), phospho-4E-BP1 (9451), total 4E-BP1 (9644), total RSK (9355), phospho-S6K (9234, 85 used at 1:5000), total S6K (2708), phospho-eIF2α (9721, used at 1:1000), total eIF2α (5324), ATF4 (11815, used at 1:1000), PDGFRβ (3169), IGF1Rβ (9750), EGFR (2232), and HER2 (2242) were from Cell Signaling Technology. Phospho-RSK antibody was from R&D (AF889). Antibodies to total STAT3 (sc-482) and gp130 (sc-656, used at 1:1000) were from Santa Cruz Biotechnology. Phospho-S727 STAT3 antibody was described previously (229). REDD1 antibody was from Proteintech (10638-1-AP, used at 1:1000). Antibody recognizing full-length and cleaved ATF6 was from Abcam (ab122897, used at 1:1000). Antibodies to tubulin (T5168) and beta actin (A5316) were from Sigma. All antibodies were used at 1:10000 dilution for western blot unless otherwise noted. […] Cell viability was measured as ATP-dependent luminescence by Cell Titer Glo (Promega). […]

STAT1 = STAT1 cell-based luciferase reporter system
Method: (§1) To determine if atovaquone inhibits STAT3, it was tested in a cell-based reporter system of STAT3 transcriptional activity (Nelson E A, et al. (2008) Nifuroxazide inhibits survival of multiple myeloma cells by directly inhibiting STAT3. Blood 112(13):5095-5102). These cells lack basal STAT3 activation; upon IL-6 treatment, STAT3 becomes activated and drives transcription of a STAT3-dependent luciferase reporter gene. The STAT3-luc reporter cells were pre-treated with drug for 1 hour, then stimulated with IL-6 (10 ng/ml) for 5 hr. Activity of firefly luciferase was measured and normalized by cell viability (Cell Titer Glo). […] To determine if atovaquone inhibits STAT3 activity specifically over other transcription factors, it was tested in cell-based reporter systems for STAT1 and STAT5, two other STAT family members, and NF-κB, an unrelated transcription factor.

[1] = tested on: U266 human multiple myeloma cells; assay: U266 multiple myeloma xenograft in NSG mice; assay type: in vivo; conditions: 200 mg/kg daily by oral gavage
Method: Female NSG mice (obtained from The Jackson Laboratory, Bar Harbor, Me.) were injected subcutaneously with 5×10^6 U266 cells in 30% Matrigel, and tumors were allowed to grow to a volume of approximately 100 mm^3. At that point, animals were treated daily by oral gavage with either vehicle (5% benzyl alcohol in water), generic atovaquone, or Mepron® brand atovaquone (GlaxoSmithKline LLC, Philadelphia, Pa.) at a dose of 200 mg/kg.

NF-κB = NF-κB cell-based reporter system
Method: as §1

## O=C1C(O)=C([C@H]2CC[C@H](c3ccc(Cl)cc3)CC2)C(=O)c2ccccc21 [atovaquone, trans-2-[4-(4-chlorophenyl)cyclohexyl]-3-hydroxy-1,4-naphthalenedione]
gp130; INA-6 20 μM 4 hours, HEL 25 μM 6 or 16 hours
  cell surface gp130 in INA-6 and HEL cells: induced downregulation of cell surface gp130
gp130; U266, 20 μM
  cell-surface expression of gp130, flow cytometric time course: rapidly inhibits the cell-surface expression of gp130
gp130; U266, 2.5 hours, atovaquone 20 μM, JAK inhibitor 1 1 μM, brefeldin A 3 μg/ml
  cell-surface expression of gp130: substantially downregulated the cell-surface expression of gp130
INA-6 cells
  viability of INA-6 cells at higher doses: complete loss of viability
INA-6 cells; INA-6
  IC50: 11.9 µM
STAT1
  STAT1 transcription factor activity: modestly affected at the higher doses
[1]
  median survival of the treated animals: increase in the median survival
[1]; from tumor volume approximately 100 mm^3
  tumor growth rate: prominent decrease in the growth rate
NF-κB
  NF-κB transcription factor activity: modestly affected at the higher doses
